From patent US5061794A, “Cephalosporin derivatives, and antibacterial agents” (priority 1986, dated 1991)
In brackets after ≈: the same amount, converted by molar mass. Read-outs that look alike come from different tables or passages of the source.

What was measured:
E. coli CSH(RE45) = assay: microbe, parasite or virus in culture; assay type: cell-based; conditions: 10^6 CFU/ml; for MIC: Escherichia coli, 16 h, read-out: Minimum Inhibitory Concentration (MIC), *E. coli CSH(RE45), lactamase-producing strain
Procedure, shortened: (§1)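 Each organism, pre-grown overnight in Mueller Hinton broth, is inoculated at 10^6 CFU/ml onto Mueller Hinton agar series with increasing compound concentration; growth inhibition is scored after 16 h, 37° C., giving MIC (μg/ml).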

E. coli CSH2 (RK1) = assay: microbe, parasite or virus in culture; assay type: cell-based; conditions: 10^6 CFU/ml; for MIC: Escherichia coli, 16 h, read-out: Minimum Inhibitory Concentration (MIC), *E. coli CSH2 (RK1), lactamase-producing strain
Procedure, shortened: as §1

E. cloacae 963 = assay: in vitro antibacterial activity, agar plate dilution method (MIC); assay type: cell-based; conditions: 10^6 CFU/ml
Procedure, shortened: as §1

E. cloacae Nek 39 = assay: as above; assay type: cell-based; conditions: Enterobacter cloacae, NEK39, 16 h, 10^6 CFU/ml
Procedure, shortened: as §1

E. coli GN5482 = assay: as above; assay type: cell-based; conditions: Escherichia coli, GN5482, 16 h
Procedure, shortened: as §1

E. coli NIHJ JC2 = assay: as above; assay type: cell-based; conditions: for MIC: Escherichia coli, NIHJJC2, 16 h, read-out: Minimum Inhibitory Concentration (MIC), E. coli NIHJ JC2, 10^6 CFU/ml, 37° C.
Procedure, shortened: as §1

K. oxytoca GN10650 = assay: as above; assay type: cell-based; conditions: 10^6 CFU/ml; for MIC: Klebsiella oxytoca
Procedure, shortened: as §1

K. pneumoniae No. 42 = assay: as above; assay type: cell-based; conditions: 10^6 CFU/ml; for MIC: Klebsiella pneumoniae, NO.42, 16 h, read-out: Minimum Inhibitory Concentration (MIC), *K. pneumoniae No. 42, lactamase-producing strain
Procedure, shortened: as §1

K. pneumoniae PCI-602 = assay: as above; assay type: cell-based; conditions: 10^6 CFU/ml; for MIC: Klebsiella pneumoniae, PCI602, 16 h
Procedure, shortened: as §1

M. morganii GN5407 = assay: as above; assay type: cell-based; conditions: 10^6 CFU/ml; for MIC: Morganella morganii, GN5407, 16 h, read-out: Minimum Inhibitory Concentration (MIC), *M. morganii GN5407, lactamase-producing strain
Procedure, shortened: as §1

P. vulgaris HX-19 = assay: as above; assay type: cell-based; conditions: P. vulgaris HX-19, 10^6 CFU/ml; for MIC: Proteus vulgaris, HX19, 16 h, read-out: Minimum Inhibitory Concentration (MIC)
Procedure, shortened: as §1

P. vulgaris No. 33 = assay: as above; assay type: cell-based; conditions: 10^6 CFU/ml; for MIC: Proteus vulgaris, NO.33, 16 h, read-out: Minimum Inhibitory Concentration (MIC), *P. vulgaris No. 33, lactamase-producing strain
Procedure, shortened: as §1

S. aureus 209P NIHJ-JC1 = assay: as above; assay type: cell-based; conditions: for MIC: Staphylococcus aureus, 16 h
Procedure, shortened: as §1

S. marcescens IAM 1184 = assay: as above; assay type: cell-based; conditions: Serratia marcescens, IAM1184, 16 h, read-out: Minimum Inhibitory Concentration (MIC)
Procedure, shortened: as §1

S. marcescens No. 16-2 = assay: as above; assay type: cell-based; conditions: Serratia marcescens, NO.162, 16 h
Procedure, shortened: as §1

Ps. aeruginosa AK 109 = assay: as above; assay type: cell-based, Pseudomonas aeruginosa; conditions: 10^6 CFU/ml; for MIC: Pseudomonas aeruginosa, AK109, 16 h
Procedure, shortened: as §1

Ps. aeruginosa AKR17 = assay: as above; assay type: cell-based, Pseudomonas aeruginosa; conditions: Ps. aeruginosa AKR17, 10^6 CFU/ml; for MIC: Pseudomonas aeruginosa, 16 h, read-out: Minimum Inhibitory Concentration (MIC)
Procedure, shortened: as §1

Ps. aeruginosa IF03445 = assay: as above; assay type: cell-based, Pseudomonas aeruginosa; conditions: 10^6 CFU/ml; for MIC: Pseudomonas aeruginosa
Procedure, shortened: as §1

Ps. cepacia 23 = assay: as above; assay type: cell-based, Pseudomonas cepacia; conditions: read-out: Minimum Inhibitory Concentration (MIC)
Procedure, shortened: as §1

A. calcoaceticus No. 4 = assay: as above; assay type: cell-based, Acinetobacter calcoaceticus; conditions: Acinetobacter calcoaceticus, NO.4, 16 h, 10^6 CFU/ml
Procedure, shortened: as §1

[1] = Enterobacter cloacae, 963, 16 h, read-out: Minimum Inhibitory Concentration (MIC), E. cloacae 963
[2] = read-out: Minimum Inhibitory Concentration (MIC)
[3] = GN10650, 16 h, read-out: Minimum Inhibitory Concentration (MIC), *K. oxytoca GN10650, lactamase-producing strain
[4] = read-out: Minimum Inhibitory Concentration (MIC), K. pneumoniae PCI-602
[5] = read-out: Minimum Inhibitory Concentration (MIC), *S. marcescens No. 16-2, lactamase-producing strain, 10^6 CFU/ml
[6] = Ps. aeruginosa AK 109, read-out: Minimum Inhibitory Concentration (MIC)
[7] = 16 h, Ps. aeruginosa IF03445, read-out: Minimum Inhibitory Concentration (MIC)
[8] = read-out: Minimum Inhibitory Concentration (MIC), A. calcoaceticus No. 4
[9] = read-out: Minimum Inhibitory Concentration (MIC), *E. cloacae Nek 39, lactamase-producing strain
[10] = S. aureus 209P NIHJ-JC1, 10^6 CFU/ml, 37° C., 16 hours, read-out: Minimum Inhibitory Concentration (MIC)
[11] = *S. marcescens No. 16-2, lactamase-producing strain, 10^6 CFU/ml, read-out: Minimum Inhibitory Concentration (MIC)
[12] = Burkholderia cepacia, 16 h, Ps. cepacia 23, 10^6 CFU/ml
[13] = A. calcoaceticus No. 4, read-out: Minimum Inhibitory Concentration (MIC)

SMILES	MIC (E. coli CSH(RE45))	MIC (E. coli CSH2 (RK1))	MIC (E. cloacae 963; [1])	MIC (E. coli GN5482; [2])	MIC (E. coli NIHJ JC2)	MIC (K. oxytoca GN10650; [3])	MIC (K. pneumoniae No. 42)	MIC (K. pneumoniae PCI-602; [4])	MIC (M. morganii GN5407)	MIC (P. vulgaris HX-19)	MIC (P. vulgaris No. 33)	MIC (S. marcescens IAM 1184)	MIC (S. marcescens No. 16-2; [5])	MIC (Ps. aeruginosa AK 109; [6])	MIC (Ps. aeruginosa AKR17)	MIC (Ps. aeruginosa IF03445; [7])	MIC (Ps. cepacia 23; Burkholderia cepacia, 23, 16 h)	MIC (A. calcoaceticus No. 4; [8])	MIC (E. cloacae Nek 39; [9])	MIC (S. aureus 209P NIHJ-JC1; [10])	further results
CC(C)(O/N=C(\C(=O)N[C@@H]1C(=O)N2C(C(=O)O)=C(CSc3nnc(-c4ccc(O)cc4)s3)CS[C@H]12)c1csc(N)n1)C(=O)O [compound 8, disodium 7β-[2-(2-aminothiazol-4-yl)-2-(1-carboxylate-1-methylethoxyimino)acetamido]-3-[5-(4-hydroxyphenyl)-1,3,4-thiadiazol-2-yl)thiomethyl-3-cephem-4-carboxylate, reference compound]	0.78 µg/mL	0.78 µg/mL	6.25 µg/mL	3.12 µg/mL	3.12 µg/mL	6.25 µg/mL	3.12 µg/mL	0.1 µg/mL	1.56 µg/mL	< 0.006 µg/mL	0.2 µg/mL	0.78 µg/mL	6.25 µg/mL	25 µg/mL	> 100 µg/mL	25 µg/mL	6.25 µg/mL	3.12 µg/mL			MIC (E. cloacae Nek 39; *E. cloacae Nek 39, lactamase-producing strain, read-out: Minimum Inhibitory Concentration (MIC)): 25 µg/mL; MIC (S. aureus 209P NIHJ-JC1; read-out: Minimum Inhibitory Concentration (MIC), S. aureus 209P NIHJ-JC1, 10^6 CFU/ml, 37° C., 16 hours): 6.25 µg/mL
CC(C)(O/N=C(\C(=O)N[C@@H]1C(=O)N2C(C(=O)O)=C(CSc3nc(-c4ccc(O)cc4)c(CC(=O)O)s3)CS[C@H]12)c1csc(N)n1)C(=O)O [compound 19, reference compound]	1.56 µg/mL (≈ 2.12 µM)	1.56 µg/mL (≈ 2.12 µM)	3.12 µg/mL (≈ 4.25 µM)	3.12 µg/mL (≈ 4.25 µM)	3.12 µg/mL (≈ 4.25 µM)	1.56 µg/mL (≈ 2.12 µM)	1.56 µg/mL (≈ 2.12 µM)	0.39 µg/mL (≈ 0.531 µM)	1.56 µg/mL (≈ 2.12 µM)	< 0.006 µg/mL	0.05 µg/mL (≈ 0.068 µM)	0.78 µg/mL (≈ 1.06 µM)			25 µg/mL (≈ 34 µM)			6.25 µg/mL (≈ 8.51 µM)	6.25 µg/mL (≈ 8.51 µM)	50 µg/mL (≈ 68 µM)	MIC (S. marcescens No. 16-2; [11]): 25 µg/mL (≈ 34 µM); MIC (Ps. aeruginosa AK 109; read-out: Minimum Inhibitory Concentration (MIC), Ps. aeruginosa AK 109): 6.25 µg/mL (≈ 8.51 µM); MIC (Ps. aeruginosa IF03445; IF03445, 16 h, read-out: Minimum Inhibitory Concentration (MIC), Ps. aeruginosa IF03445): 12.5 µg/mL (≈ 17 µM); MIC (Ps. cepacia 23; [12]): 0.2 µg/mL (≈ 0.272 µM)
CO/N=C(\C(=O)N[C@@H]1C(=O)N2C(C(=O)O)=C(CSc3nc(-c4ccccc4)c(CC(=O)O)s3)CS[C@H]12)c1csc(N)n1 [compound 15, disodium 7β-[2-(2-aminothiazol-4-yl)-2-methoxyiminoacetamido]-3-(5-carboxylatemethyl-4-phenylthiazol-2-yl)thiomethyl-3-cephem-4-carboxylate, reference compound]	0.78 µg/mL	0.39 µg/mL	0.39 µg/mL	3.12 µg/mL	0.78 µg/mL		0.78 µg/mL		0.39 µg/mL	< 0.006 µg/mL	0.2 µg/mL	0.78 µg/mL		100 µg/mL	> 100 µg/mL	100 µg/mL	6.25 µg/mL		12.5 µg/mL		MIC (K. oxytoca GN10650; 16 h, *K. oxytoca GN10650, lactamase-producing strain, read-out: Minimum Inhibitory Concentration (MIC)): 25 µg/mL; MIC (K. pneumoniae PCI-602; K. pneumoniae PCI-602, read-out: Minimum Inhibitory Concentration (MIC)): 0.2 µg/mL; MIC (S. aureus 209P NIHJ-JC1; [2]): 3.12 µg/mL; MIC (S. marcescens No. 16-2; [11]): 50 µg/mL; MIC (A. calcoaceticus No. 4; [13]): 100 µg/mL
Nc1nc(C(=NOC(C(=O)O)c2ccccc2)C(=O)NC2C(=O)N3C(C(=O)O)=C(CSc4nc(C(=O)O)c(-c5ccc(O)c(O)c5)s4)CSC23)cs1 (single isomer, unassigned) [Example 51 DA]													1.56 µg/mL (≈ 1.99 µM)					0.1 µg/mL (≈ 0.127 µM)	0.1 µg/mL (≈ 0.127 µM)		Minimum Inhibitory Concentration (MIC) (E. coli CSH(RE45); *E. coli CSH(RE45), lactamase-producing strain): 0.1 µg/mL; Minimum Inhibitory Concentration (MIC) (E. coli CSH2 (RK1); *E. coli CSH2 (RK1), lactamase-producing strain): 0.05 µg/mL; MIC (E. cloacae 963; Enterobacter cloacae, 16 h, E. cloacae 963, read-out: Minimum Inhibitory Concentration (MIC)): 0.2 µg/mL (≈ 0.255 µM); MIC (E. coli GN5482; read-out: Minimum Inhibitory Concentration (MIC), *E. coli GN5482, lactamase-producing strain, 10^6 CFU/ml): 1.56 µg/mL (≈ 1.99 µM); Minimum Inhibitory Concentration (MIC) (E. coli NIHJ JC2; E. coli NIHJ JC2, 10^6 CFU/ml, 37° C., 16 hours): 3.12 µg/mL; Minimum Inhibitory Concentration (MIC) (K. oxytoca GN10650; *K. oxytoca GN10650, lactamase-producing strain): 0.1 µg/mL; Minimum Inhibitory Concentration (MIC) (K. pneumoniae No. 42; *K. pneumoniae No. 42, lactamase-producing strain): 0.2 µg/mL; Minimum Inhibitory Concentration (MIC) (K. pneumoniae PCI-602; K. pneumoniae PCI-602): 0.0125 µg/mL; Minimum Inhibitory Concentration (MIC) (M. morganii GN5407; *M. morganii GN5407, lactamase-producing strain): 0.2 µg/mL; Minimum Inhibitory Concentration (MIC) (P. vulgaris HX-19): 0.2 µg/mL; Minimum Inhibitory Concentration (MIC) (P. vulgaris No. 33; *P. vulgaris No. 33, lactamase-producing strain): 0.39 µg/mL; Minimum Inhibitory Concentration (MIC) (S. aureus 209P NIHJ-JC1; S. aureus 209P NIHJ-JC1, 10^6 CFU/ml, 37° C., 16 hours): 100 µg/mL; MIC (S. marcescens IAM 1184; S. marcescens IAM 1184, 10^6 CFU/ml): 0.1 µg/mL (≈ 0.127 µM); Minimum Inhibitory Concentration (MIC) (Ps. aeruginosa AK 109; Ps. aeruginosa AK 109): 1.56 µg/mL; Minimum Inhibitory Concentration (MIC) (Ps. aeruginosa AKR17): 1.56 µg/mL; Minimum Inhibitory Concentration (MIC) (Ps. aeruginosa IF03445; Ps. aeruginosa IF03445): 1.56 µg/mL; MIC (Ps. cepacia 23; [12]): < 0.006 µg/mL
CO/N=C(\C(=O)N[C@@H]1C(=O)N2C(C(=O)O)=C(CSc3nc(-c4ccccc4)cs3)CS[C@H]12)c1csc(N)n1 [compound 9, sodium 7μ-[2-(2-aminothiazol-4-yl)-2-methoxyiminoacetamido]-3-(4-phenylthiazol-2-yl)-thiomethyl-3-cephem-4-carboxylate, reference compound]	0.78 µg/mL	0.39 µg/mL	1.56 µg/mL	0.39 µg/mL	0.78 µg/mL	3.12 µg/mL	1.56 µg/mL	< 0.006 µg/mL	0.78 µg/mL	< 0.006 µg/mL	0.78 µg/mL	0.39 µg/mL		25 µg/mL	> 100 µg/mL	25 µg/mL	3.12 µg/mL		3.12 µg/mL	0.1 µg/mL	MIC (S. marcescens No. 16-2; [2]): 3.12 µg/mL; MIC (A. calcoaceticus No. 4; [13]): 25 µg/mL
